Measured values taken from ChEMBL document CHEMBL4321865, “Discovery of Novel Inhibitors of LpxC Displaying Potent in Vitro Activity against Gram-Negative Bacteria” (J Med Chem, 2020).
≈ marks a conversion by molar mass, not a printed value.

What was measured:
[1] = system: T1, UDP-3-O-acyl-N-acetylglucosamine deacetylase (Escherichia coli K-12), P0A725 [C125S]
T1 sequence (whole entry): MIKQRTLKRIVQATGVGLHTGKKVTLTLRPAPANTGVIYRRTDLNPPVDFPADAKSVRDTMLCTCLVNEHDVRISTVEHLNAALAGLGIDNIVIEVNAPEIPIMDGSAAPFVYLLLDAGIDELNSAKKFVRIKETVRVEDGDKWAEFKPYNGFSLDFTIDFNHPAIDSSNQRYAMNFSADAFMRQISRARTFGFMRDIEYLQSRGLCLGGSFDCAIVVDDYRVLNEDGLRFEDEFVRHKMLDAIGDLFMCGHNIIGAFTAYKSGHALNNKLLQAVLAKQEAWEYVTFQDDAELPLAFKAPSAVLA

[2] = system: T2, UDP-3-O-acyl-N-acetylglucosamine deacetylase (Pseudomonas aeruginosa (strain ATCC 15692 / PAO1 / 1C / PRS 101 / LMG12228)), P47205 [C40S]
T2 sequence (whole entry): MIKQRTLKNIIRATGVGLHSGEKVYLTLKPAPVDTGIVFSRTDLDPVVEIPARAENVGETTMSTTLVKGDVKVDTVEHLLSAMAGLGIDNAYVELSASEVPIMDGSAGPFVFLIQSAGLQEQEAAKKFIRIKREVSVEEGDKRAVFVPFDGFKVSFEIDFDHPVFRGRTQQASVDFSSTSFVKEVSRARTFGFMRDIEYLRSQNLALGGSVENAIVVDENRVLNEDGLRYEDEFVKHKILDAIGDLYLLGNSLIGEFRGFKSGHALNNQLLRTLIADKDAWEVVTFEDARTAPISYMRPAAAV

Escherichia coli = assay: microbe, parasite or virus in culture; conditions: ATCC 25922
Description: Antibacterial activity against wild-type Escherichia coli ATCC 25922 by broth microdilution method

Klebsiella pneumoniae = assay: microbe, parasite or virus in culture; conditions: T 6474
Description: Antibacterial activity against multi-drug resistant Klebsiella pneumoniae T 6474 by broth microdilution method

Pseudomonas aeruginosa [3] = assay: microbe, parasite or virus in culture; conditions: ATCC 27853
Description: Antimicrobial activity against Pseudomonas aeruginosa ATCC 27853 by broth microdilution method

Pseudomonas aeruginosa [4] = assay: microbe, parasite or virus in culture; conditions: PAO1
Description: Antimicrobial activity against wild-type Pseudomonas aeruginosa PAO1 by broth microdilution method

physchem [5] = conditions: n-octanol/phosphate buffered saline, pH 7.4
Description: n-Octanol/phosphate buffered saline partition coefficient, log D of the compound at pH 7.4 by LC-UV method

physchem [6] = conditions: DMSO, pH 7
Description: Solubility of the compound in DMSO at pH 7 incubated for 24 hrs by LC-UV method

physchem [7] = conditions: DMSO, pH 9
Description: Solubility of the compound in DMSO at pH 9 incubated for 24 hrs by LC-UV method

physchem [8] = conditions: DMSO, pH 4
Description: Solubility of the compound in DMSO at pH 4 incubated for 24 hrs by LC-UV method

Row | SMILES | ΔTm [1] [°C] | ΔTm [2] [°C] | MIC (Escherichia coli) [µg/mL] | MIC (Klebsiella pneumoniae) [µg/mL] | MIC (Pseudomonas aeruginosa [3]) [µg/mL] | MIC (Pseudomonas aeruginosa [4]) [µg/mL] | logD (physchem [5]) | solubility at 24 h (physchem [6]) [µg/mL] | solubility at 24 h (physchem [7]) [µg/mL] | solubility at 24 h (physchem [8]) [µg/mL]
1 | C[C@@](CCN1Cc2cc(C#CC#C[C@H](O)CO)cn2C1=O)(C(=O)NO)S(C)(=O)=O | 7.3 | 10.3 | 8 (≈ 18.9 µM) | 8 (≈ 18.9 µM) | 4 (≈ 9.45 µM) | 8 (≈ 18.9 µM) | – | – | – | –
2 | C[C@@](CCN1Cc2cc(C#CC#C[C@@H]3C[C@H]3CO)sc2C1=O)(C(=O)NO)S(C)(=O)=O | 11.2 | 15 | 0.12 (≈ 0.266 µM) | 0.25 (≈ 0.555 µM) | 0.5 (≈ 1.11 µM) | 0.5 (≈ 1.11 µM) | 1.3 | 377 (≈ 837 µM) | 380 (≈ 843 µM) | 464 (≈ 1030 µM)
3 | C[C@@](CCN1Cc2cc(C#Cc3ccc([C@H](O)CO)cc3)sc2C1=O)(C(=O)NO)S(C)(=O)=O | 12.1 | 14.3 | 0.5 (≈ 1.02 µM) | 1 (≈ 2.03 µM) | 1 (≈ 2.03 µM) | 2 (≈ 4.06 µM) | 0.8 | 300 (≈ 609 µM) | 814 (≈ 1650 µM) | 230 (≈ 467 µM)
4 | CC(C)(O)C#CC#Cc1cc2c(s1)C(=O)N(CC[C@](C)(C(=O)NO)S(C)(=O)=O)C2 | 9.9 | 13.6 | 0.5 (≈ 1.14 µM) | 2 (≈ 4.56 µM) | 1 (≈ 2.28 µM) | 2 (≈ 4.56 µM) | 1.2 | > 740 | > 740 | > 740
5 | C[C@@](CCN1Cc2cc(C#Cc3ccc(CN4CCOCC4)cc3)sc2C1=O)(C(=O)NO)S(C)(=O)=O | 13 | 15.5 | ≤ 0.06 | 0.12 (≈ 0.226 µM) | 1 (≈ 1.88 µM) | 1 (≈ 1.88 µM) | 1.8 | 155 (≈ 292 µM) | 571 (≈ 1070 µM) | > 900
6 | C[C@@](CCN1Cc2cc(C#Cc3ccc(CNS(C)(=O)=O)cc3)cn2C1=O)(C(=O)NO)S(C)(=O)=O | 11.2 | 13.2 | 0.25 (≈ 0.478 µM) | 0.5 (≈ 0.957 µM) | 1 (≈ 1.91 µM) | 1 (≈ 1.91 µM) | 1 | 3 (≈ 5.74 µM) | 56 (≈ 107 µM) | 1 (≈ 1.91 µM)
7 | CC(C)(O)c1ccc(C#Cc2cc3c(s2)C(=O)N(CC[C@](C)(C(=O)NO)S(C)(=O)=O)C3)cc1 | 13 | 15.5 | 0.12 (≈ 0.245 µM) | 0.25 (≈ 0.51 µM) | 0.5 (≈ 1.02 µM) | 1 (≈ 2.04 µM) | 2.1 | 83 (≈ 169 µM) | 613 (≈ 1250 µM) | 69 (≈ 141 µM)
8 | C[C@@](CCN1Cc2cc(C#Cc3ccc(C4(CO)CC4)cc3)cn2C1=O)(C(=O)NO)S(C)(=O)=O | 11.8 | 13.6 | 0.12 (≈ 0.247 µM) | 0.25 (≈ 0.515 µM) | 0.5 (≈ 1.03 µM) | 0.5 (≈ 1.03 µM) | 2 | 7 (≈ 14.4 µM) | 56 (≈ 115 µM) | 5 (≈ 10.3 µM)
9 | C[C@@](CCN1Cc2cc(C#Cc3ccc(C4(O)COC4)cc3)sc2C1=O)(C(=O)NO)S(C)(=O)=O | 11.4 | 14.3 | 0.12 (≈ 0.238 µM) | 0.5 (≈ 0.991 µM) | 0.5 (≈ 0.991 µM) | 2 (≈ 3.96 µM) | 1.5 | > 850 | > 850 | 114 (≈ 226 µM)
10 | CC(C)(O)C#CC#Cc1cc2n(c1)C(=O)N(CC[C@](C)(C(=O)NO)S(C)(=O)=O)C2 | 9.9 | 12.3 | 0.5 (≈ 1.19 µM) | 1 (≈ 2.37 µM) | 1 (≈ 2.37 µM) | 2 (≈ 4.75 µM) | 0.9 | > 710 | > 710 | 398 (≈ 944 µM)
11 | C[C@@](CCN1Cc2cc(C#CC#CC3(O)COC3)sc2C1=O)(C(=O)NO)S(C)(=O)=O | 7.4 | 12.2 | 2 (≈ 4.42 µM) | 4 (≈ 8.84 µM) | 4 (≈ 8.84 µM) | 4 (≈ 8.84 µM) | 0.5 | > 760 | > 760 | > 760
12 | C[C@@](CCN1Cc2cc(C#Cc3ccc([C@@H]4C[C@H]4CO)cc3)cn2C1=O)(C(=O)NO)S(C)(=O)=O | 12.1 | 13.4 | ≤ 0.06 | ≤ 0.06 | 0.5 (≈ 1.03 µM) | 1 (≈ 2.06 µM) | 2 | 112 (≈ 231 µM) | 568 (≈ 1170 µM) | 73 (≈ 150 µM)
13 | C[C@@](CCN1Cc2cc(C#Cc3ccc(CN4CCOCC4)cc3)ccc2C1=O)(C(=O)NO)S(C)(=O)=O | 11 | 13.8 | 0.12 (≈ 0.228 µM) | 0.5 (≈ 0.951 µM) | 2 (≈ 3.8 µM) | 2 (≈ 3.8 µM) | 1.8 | 148 (≈ 282 µM) | > 890 | > 890
14 | C[C@@](CCN1Cc2cc(C#CC#CCOC(=O)N3CCC(O)CC3)cn2C1=O)(C(=O)NO)S(C)(=O)=O | 9.4 | 12.9 | 0.5 (≈ 0.96 µM) | 1 (≈ 1.92 µM) | 2 (≈ 3.84 µM) | 2 (≈ 3.84 µM) | 0.9 | 785 (≈ 1510 µM) | > 880 | 641 (≈ 1230 µM)
15 | C[C@@](CCN1Cc2cc(C#Cc3ccc(COC(=O)N4CCC(O)CC4)cc3)cn2C1=O)(C(=O)NO)S(C)(=O)=O | 11.8 | 14.2 | 0.25 (≈ 0.437 µM) | 0.5 (≈ 0.873 µM) | 2 (≈ 3.49 µM) | 2 (≈ 3.49 µM) | 1.7 | 15 (≈ 26.2 µM) | 251 (≈ 438 µM) | < 1
16 | C[C@@](CCN1Cc2cc(C#Cc3ccc(CN4CCOCC4)cc3)cn2C1=O)(C(=O)NO)S(C)(=O)=O | 11.9 | 13.6 to 13.9 | – | 0.25 (≈ 0.486 µM) | 1 (≈ 1.94 µM) | 1 (≈ 1.94 µM) | 1.6 | 68 (≈ 132 µM) | 621 (≈ 1210 µM) | 802 (≈ 1560 µM)
17 | C[C@@](CCN1Cc2cc(C#CC#CC3(CO)CC3)sc2C1=O)(C(=O)NO)S(C)(=O)=O | 10.9 | 14.2 | 1 (≈ 2.22 µM) | 1 (≈ 2.22 µM) | 1 (≈ 2.22 µM) | 1 (≈ 2.22 µM) | 1.2 | > 760 | > 760 | 443 (≈ 983 µM)
18 | C[C@@](CCN1Cc2cc(C#CC#C[C@@H]3C[C@H]3CO)cn2C1=O)(C(=O)NO)S(C)(=O)=O | 10.8 | 13.6 | 0.12 (≈ 0.277 µM) | 0.25 (≈ 0.577 µM) | 0.5 (≈ 1.15 µM) | 0.5 (≈ 1.15 µM) | – | – | – | 600 (≈ 1380 µM)
19 | CC(C)(O)C#CC#Cc1ccc2c(c1)CN(CC[C@](C)(C(=O)NO)S(C)(=O)=O)C2=O | 8.5 | 12.6 | 1 (≈ 2.31 µM) | 2 (≈ 4.62 µM) | 2 (≈ 4.62 µM) | 2 (≈ 4.62 µM) | 1.2 | 97 (≈ 224 µM) | 564 (≈ 1300 µM) | 71 (≈ 164 µM)
20 | C[C@@](CCN1Cc2cc(C#CC#CC3(O)COC3)ccc2C1=O)(C(=O)NO)S(C)(=O)=O | 7 | 11.6 | 16 (≈ 35.8 µM) | 8 (≈ 17.9 µM) | 8 (≈ 17.9 µM) | 4 (≈ 8.96 µM) | – | – | – | –
21 | C[C@@](CCN1Cc2cc(C#CC#CC3(N)CC3)sc2C1=O)(C(=O)NO)S(C)(=O)=O.Cl | 10 | 12.5 | 0.25 | 0.5 | 1 | 1 | 1 | 207 | > 740 | > 740
22 | CC(C)(O)c1ccc(C#Cc2cc3n(c2)C(=O)N(CC[C@](C)(C(=O)NO)S(C)(=O)=O)C3)cc1 | 11.8 | 13.7 | 0.12 (≈ 0.253 µM) | 0.25 (≈ 0.528 µM) | 0.5 (≈ 1.06 µM) | 1 (≈ 2.11 µM) | 1.9 | 110 (≈ 232 µM) | 556 (≈ 1170 µM) | 70 (≈ 148 µM)
23 | C[C@@](CCN1Cc2cc(C#Cc3ccc([C@H]4C[C@@H]4CO)cc3)cn2C1=O)(C(=O)NO)S(C)(=O)=O | 12.1 | 13.4 | ≤ 0.06 | ≤ 0.06 | 0.5 (≈ 1.03 µM) | 1 (≈ 2.06 µM) | 1.4 | 24 (≈ 49.4 µM) | 170 (≈ 350 µM) | 11 (≈ 22.7 µM)
24 | C[C@@](CCN1Cc2cc(C#Cc3ccc(C4(O)COC4)cc3)cn2C1=O)(C(=O)NO)S(C)(=O)=O | 10.8 | 13 | 0.12 (≈ 0.246 µM) | 0.5 (≈ 1.03 µM) | 0.5 (≈ 1.03 µM) | 1 (≈ 2.05 µM) | 1.2 | > 820 | > 820 | 195 (≈ 400 µM)
25 | C[C@@](CCN1Cc2cc(C#CC#CCNS(C)(=O)=O)cn2C1=O)(C(=O)NO)S(C)(=O)=O | 8 | 10.8 | 2 (≈ 4.25 µM) | 4 (≈ 8.5 µM) | 4 (≈ 8.5 µM) | 1 (≈ 2.13 µM) | – | – | – | –
